From article PMC8041284, “Tunable Methacrylamides for Covalent Ligand Directed Release Chemistry” (Journal of the American Chemical Society, 2021)
Where two headings read alike, the source gives them in different places. Where a SMILES comes first, the peptide text is derived from it. Bridges are numbered along the chain shown (N, C = ends). [ ]: non-standard residue; d: D form. The star is where a group is joined. Ileψ(thiazoline)Cys = CC[C@H](C)[C@H](N)C1=N[C@H](C(=O)*)CS1; dOrn = NCCC[C@@H](N)C(=O)O

Target: BTK (Homo sapiens, UniProt Q06187)
Sequence (Q06187 402-655 limits assumed): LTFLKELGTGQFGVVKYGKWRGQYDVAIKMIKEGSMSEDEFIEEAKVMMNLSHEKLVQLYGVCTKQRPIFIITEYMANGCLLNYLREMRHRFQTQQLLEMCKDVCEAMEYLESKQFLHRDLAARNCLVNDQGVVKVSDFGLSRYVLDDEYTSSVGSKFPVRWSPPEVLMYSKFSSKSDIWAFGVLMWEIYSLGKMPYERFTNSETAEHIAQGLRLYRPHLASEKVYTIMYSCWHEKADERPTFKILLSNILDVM
Experiment: biochemical
[1] = read-out: BTK inhibition (%), 0.75 uM BTK, […] probe 3l, 15 min preincubation

CO[C@@H]1[C@@H](O[C@@H]2O[C@H](C)[C@@H](O[C@H]3C[C@@](C)(O)[C@@H](O)[C@H](C)O3)[C@H](N(C)C)[C@H]2O)[C@@H](CC=O)C[C@@H](C)[C@@H](O[C@H]2CC[C@H](N(C)C)[C@@H](C)O2)/C=C/C=C/C[C@@H](C)OC(=O)C[C@H]1OC(C)=O [PCM-0214867]
inhibition at 10 µM [1]: 14%

Cc1ccc2c(c1)[C@]13CCCC[C@@H]1[C@H](C2)N(C)CC3 [PCM-0216574]
inhibition at 10 µM (read-out: BTK inhibition (%)): 12.8%

O=C(O)C(=O)c1cn(Cc2ccccc2)c2ccc(-c3ccc(OC(F)(F)F)cc3)cc12 [PCM-0215526]
inhibition at 10 µM [1]: 34%

CCN1CCCC1CNC(=O)c1cc(S(=O)(=O)CC)c(N)cc1OC (stereo not drawn) [PCM-0064775]
inhibition at 10 µM [1]: 0.8%

CCCCCC1C(=O)CCC1CC(=O)OCCC (stereo not drawn) [PCM-0216258]
inhibition at 10 µM [1]: -0.8%

Cc1cn([C@@H]2C[C@@H](O)[C@H](CO)O2)c(=O)[nH]c1=O [PCM-0095099]
inhibition at 10 µM [1]: -6.2%

O=C1CCCC(=O)C1C(=O)c1ccc(C(F)(F)F)cc1[N+](=O)[O-] [PCM-0216128]
inhibition at 10 µM [1]: -10%

CC(=O)Oc1cccc2ccccc12 [PCM-0215066]
inhibition at 10 µM [1]: -21%

CC(C)=CCC[C@](C)(O[C@@H]1O[C@H](CO)[C@@H](O)[C@H](O)[C@H]1O)[C@H]1CC[C@]2(C)[C@@H]1[C@H](O)C[C@@H]1[C@@]3(C)CC[C@H](O)C(C)(C)[C@@H]3[C@@H](O)C[C@]12C [PCM-0216532]
inhibition at 10 µM [1]: -11.6%

COC(=O)c1ccc(O)c(O)c1 [PCM-0215036]
inhibition at 10 µM [1]: -15.6%

C[C@@H](O)[C@H]1C(=O)N2C(C(=O)OCOC(=O)C(C)(C)C)=C(SC3CN(C4=NCCS4)C3)[C@H](C)[C@H]12 [PCM-0214665]
inhibition at 10 µM [1]: 4.7%

CCCCCCC[C@H](O)CC(=O)CCc1ccc(O)c(OC)c1 [PCM-0216329]
inhibition at 10 µM [1]: -41.7%

CN(C)CCOC(c1ccccc1)c1ccccc1 [PCM-0065230]
inhibition at 10 µM [1]: 2.1%

COCCOc1nc(-c2ccc(Cl)c(Cl)c2)n(-c2ccc(NC(=O)CCl)cc2)n1 [PCM-0215327]
inhibition at 10 µM [1]: 106%

Oc1ccc(OCc2ccccc2)cc1 [PCM-0086466]
inhibition at 10 µM [1]: 8.6%

COc1cc(N2CCN(C)CC2)ccc1Nc1ncc2c(n1)N(C)c1ccccc1C(=O)N2 [PCM-0213372]
inhibition at 10 µM [1]: 11%

COc1cc(CCc2cc(NC(=O)c3ccc(N4C[C@@H](C)N[C@@H](C)C4)cc3)n[nH]2)cc(OC)c1 [PCM-0095396]
inhibition at 10 µM [1]: 58.6%

Cc1coc2c1C(=O)C(=O)c1c-2ccc2c(C)cccc12 [PCM-0094815]
inhibition at 10 µM [1]: -3.9%

CS(=O)(=O)Nc1ccc([N+](=O)[O-])cc1Oc1ccccc1 [PCM-0064916]
inhibition at 10 µM [1]: 3.4%

O=C1CC(c2c[nH]c3ccc(F)cc23)C(=O)N1 (stereo not drawn) [PCM-0215900]
inhibition at 10 µM [1]: -5.4%

CN(C)c1ccc(-c2nc3ncc(Cl)c(N4CCN(CC(=O)Nc5nccs5)CC4)c3[nH]2)cc1 [PCM-0095191]
inhibition at 10 µM [1]: -2.6%

CC(=O)CCc1ccc(OC(C)=O)cc1 [PCM-0216104]
inhibition at 10 µM [1]: -10.8%

O=c1cc(-c2ccc(O)c(O)c2)oc2cc(O)c([C@@H]3O[C@H](CO)[C@@H](O)[C@H](O)[C@H]3O)c(O)c12 [PCM-0216497]
inhibition at 10 µM [1]: -4.6%

Cc1ccc(-c2cc(C(F)(F)F)nn2-c2ccc(S(N)(=O)=O)cc2)cc1 [PCM-0065035]
inhibition at 10 µM [1]: 22.8%

Nc1ccn([C@@H]2O[C@H](CO)[C@@H](O)[C@H]2O)c(=O)n1 [PCM-0095215]
inhibition at 10 µM [1]: -15.6%

Cc1cc2c(s1)Nc1ccccc1N=C2N1CCN(C)CC1 [PCM-0064824]
inhibition at 10 µM [1]: -8.6%

Cn1cc[nH]c1=S [PCM-0086540]
inhibition at 10 µM [1]: 14.8%

CO/N=C(\C(=O)N[C@@H]1C(=O)N2C(C(=O)OC(C)OC(C)=O)=C(COC(N)=O)CS[C@H]12)c1ccco1 (stereo partly drawn) [PCM-0215079]
inhibition at 10 µM [1]: 2.8%

C[C@@H](Oc1cc(-n2cnc3ccc(CN4CCN(C)CC4)cc32)sc1C(N)=O)c1ccccc1C(F)(F)F [PCM-0095237]
inhibition at 10 µM [1]: 0.7%

C[C@@H]1CC(=O)Nc2cccc(-c3ccc4c(c3)c(-c3cnn(C)c3)nn4C)c2N1 [PCM-0215716]
inhibition at 10 µM [1]: 1.5%

CCOC(=O)c1ccc(NC(=O)O[C@H]2[C@H](OC(=O)Nc3ccc4c(c3)OCO4)[C@@H](OC(=O)Nc3ccc4c(c3)OCO4)[C@@H](OC)O[C@@H]2CO)cc1 [PCM-0215463]
inhibition at 10 µM [1]: 98.1%

COc1c(O[C@@H]2O[C@H](CO)[C@@H](O)[C@H](O)[C@H]2O)cc2occ(-c3ccc(O)cc3)c(=O)c2c1O [PCM-0215052]
inhibition at 10 µM [1]: -3.1%

COc1cc(C2Oc3cc(C4Oc5cc(O)cc(O)c5C(=O)C4O)ccc3OC2CO)ccc1O (stereo not drawn) [PCM-0094811]
inhibition at 10 µM [1]: 66.1%

CCCCCCCCCCCCCCCCCCCCCC(=O)O [PCM-0216151]
inhibition at 10 µM [1]: 23.2%

C[C@]12CCC3=C4CCC(=O)C=C4CC[C@H]3[C@@H]1CC[C@@]2(O)CC#N [PCM-0095005]
inhibition at 10 µM [1]: -11.7%

NC1=N[C@@]2(c3cc(NC(=O)c4ccc(F)cn4)ccc3F)COC[C@H]2CS1 [PCM-0095207]
inhibition at 10 µM [1]: -3.1%

Cc1cc(Cn2cnc3c2C[C@@H](C(=O)O)N(C(=O)C(c2ccccc2)c2ccccc2)C3)ccc1N(C)C [PCM-0215225]
inhibition at 10 µM [1]: 6.2%

CC/C(=C(/c1ccc(/C=C/C(=O)O)cc1)c1ccc2[nH]ncc2c1)c1ccc(F)cc1Cl [PCM-0216010]
inhibition at 10 µM [1]: 81.1%

C=C1CCC[C@]2(C)C[C@]3(O)OC(=O)C(C)=C3C[C@@H]12 [PCM-0216544]
inhibition at 10 µM [1]: 6.9%

Cn1cc(-c2cc(Oc3cc(F)c(NC(=O)C4(C(=O)Nc5ccccc5)CC4)cc3F)ccn2)cn1 [PCM-0216116]
inhibition at 10 µM [1]: 88.8%

NC(=O)c1cn(Cc2c(F)cccc2F)nn1 [PCM-0065619]
inhibition at 10 µM [1]: -17.9%

C/C=C1\[C@H]2C=C(C)C[C@]1(N)c1ccc(=O)[nH]c1C2 [PCM-0091027]
inhibition at 10 µM [1]: -24.7%

N#Cc1c(Oc2ccc(F)c(NC(=O)Cc3cccc(C(F)(F)F)c3)c2)ccc2nc(NC(=O)C3CC3)sc12 [PCM-0215264]
inhibition at 10 µM [1]: 37.9%

COc1cc2c(cc1OC)[C@@H](Cc1ccc(Oc3cc(C[C@@H]4c5cc(OC)c(OC)cc5CCN4C)ccc3O)cc1)N(C)CC2 [PCM-0216529]
inhibition at 10 µM [1]: -9.3%

C[C@@H]1[C@H]2c3cc4c(cc3O[C@@]35OCOC3=CC(=O)[C@H](C[C@H]1C)[C@@H]25)OCO4 [PCM-0216310]
inhibition at 10 µM [1]: 33.2%

COc1cc2c(cc1OC)C1Cc3ccc(OC)c(OC)c3CN1CC2 (stereo not drawn) [PCM-0088127]
inhibition at 10 µM [1]: -14%

C=CC(=O)N[C@H]1CCOC[C@H]1Nc1ncc2cc(-c3c(Cl)c(OC)cc(OC)c3Cl)ccc2n1 [PCM-0215807]
inhibition at 10 µM [1]: 22.1%

C=C1[C@H]2C[C@@]3([C@@H]1O)[C@@H](CC2=O)[C@]12[C@@H]4C[C@H]3[C@H]1N(CC)C[C@]4(C)CC[C@@H]2O [PCM-0216364]
inhibition at 10 µM [1]: 19.3%

CC(C)n1nc(-c2ccc(NC(=O)Nc3cc(C(F)(F)F)ccc3F)cc2)c2c(N)ncnc21 [PCM-0215828]
inhibition at 10 µM [1]: 106%

OC[C@@H](O)[C@@H](O)[C@H](O)[C@H](O)CO [PCM-0094876]
inhibition at 10 µM [1]: -17.1%

CCCCCCCCCCCC1=C(O)C(=O)C=C(O)C1=O [PCM-0095569]
inhibition at 10 µM [1]: 42.5%

CCN(CC)C(=O)[C@]1(c2ccccc2)C[C@@H]1CN [PCM-0095594]
inhibition at 10 µM [1]: 0.8%

Clc1ccc(C(Cn2ccnc2)OCc2c(Cl)cccc2Cl)c(Cl)c1 (stereo not drawn) [PCM-0085849]
inhibition at 10 µM [1]: 38.9%

CCc1cc(C(N)=S)ccn1 [PCM-0086071]
inhibition at 10 µM [1]: -14.8%

CC(C)(C)/[N+]([O-])=C/c1ccc(S(=O)(=O)O)cc1S(=O)(=O)O [PCM-0095556]
inhibition at 10 µM [1]: 7.7%

CCOC(=O)C1=C(N)Oc2ccc(Br)cc2C1C(C#N)C(=O)OCC (stereo not drawn) [PCM-0214778]
inhibition at 10 µM [1]: 15.6%

Clc1ccc2c(N3CCN(CCCN4CCN(c5ccnc6cc(Cl)ccc56)CC4)CC3)ccnc2c1 [PCM-0216142]
inhibition at 10 µM [1]: -5.1%

CC(NC(=O)[C@H](Cc1ccccc1)NC(=O)OCc1ccccc1)C(=O)CF (stereo partly drawn) [PCM-0215313]
inhibition at 10 µM [1]: -3.1%

CCCc1nc(C)c2c(=O)[nH]c(-c3cc(S(=O)(=O)N4CCN(CC)CC4)ccc3OCC)nn12 [PCM-0086229]
inhibition at 10 µM [1]: -10.9%

CCCCCCCCCCCCCC(=S)NCCCC[C@H](NC(=O)OCc1ccccc1)C(=O)Nc1ccccc1 [PCM-0215787]
inhibition at 10 µM [1]: -6.2%

O=[N+]([O-])c1ccc(Nc2ccccc2-c2ccccc2)c2nonc12 [PCM-0215806]
inhibition at 10 µM [1]: 74.1%

CCOC(=O)c1ccc(O)c(OC)c1 [PCM-0215087]
inhibition at 10 µM [1]: -7.8%

CC[C@@H]([C@H](C)O)n1ncn(-c2ccc(N3CCN(c4ccc(OC[C@@H]5CO[C@@](Cn6cncn6)(c6ccc(F)cc6F)C5)cc4)CC3)cc2)c1=O [PCM-0214608]
inhibition at 10 µM [1]: 4.7%

OC[C@@H](O)[C@@H](O)CO [PCM-0214773]
inhibition at 10 µM [1]: 7.8%

OCc1ccc(O[C@@H]2O[C@H](CO)[C@@H](O)[C@H](O)[C@H]2O)cc1 [PCM-0094551]
inhibition at 10 µM [1]: 17.9%

O=C(/C=C\n1cnc(-c2cc(C(F)(F)F)cc(C(F)(F)F)c2)n1)N1CC(F)(F)C1 [PCM-0095738]
inhibition at 10 µM [1]: -16.2%

CC[C@H](C)[C@H](N)C1=N[C@H](C(=O)N[C@@H](CC(C)C)C(=O)N[C@H](CCC(=O)O)C(=O)N[C@H](C(=O)N[C@H]2CCCCNC(=O)[C@H](CC(N)=O)NC(=O)[C@@H](CC(=O)O)NC(=O)[C@H](Cc3cnc[nH]3)NC(=O)[C@@H](Cc3ccccc3)NC(=O)[C@H]([C@@H](C)CC)NC(=O)[C@@H](CCCN)NC2=O)[C@@H](C)CC)CS1 [PCM-0215200] ({Ileψ(thiazoline)Cys}-L[dE]IK[dOrn]I[dF]H[dD]N; lactam 4-C)
inhibition at 10 µM [1]: -27.2%

COc1cc(-c2oc3cc(O)cc(O)c3c(=O)c2O)ccc1O [PCM-0216402]
inhibition at 10 µM [1]: 73.4%

CC(C)(O)[C@H]1CC[C@@](C)([C@H]2[C@@H](O)C[C@@]3(C)[C@@H]4C[C@H](O[C@@H]5O[C@H](CO)[C@@H](O)[C@H](O)[C@H]5O)[C@H]5C(C)(C)[C@@H](O[C@@H]6OC[C@@H](O)[C@H](O)[C@H]6O)CC[C@@]56C[C@@]46CC[C@]23C)O1 [PCM-0214684]
inhibition at 10 µM [1]: 5.4%

Nc1ccccc1NC(=O)c1cnccn1 [PCM-0215479]
inhibition at 10 µM [1]: -3.9%

CC(C(=O)Nc1cccc(N=Cc2c(O)ccc3ccccc23)c1)c1ccccc1 (stereo not drawn) [PCM-0215794]
inhibition at 10 µM [1]: 21.6%

CCCCCCCN(CC)CCCC(O)c1ccc(NS(C)(=O)=O)cc1 (stereo not drawn) [PCM-0086483]
inhibition at 10 µM [1]: -17.1%
